From US12662458B2, “Solid forms of a compound” (Denali Therapeutics Inc., priority 2020, dated 2026)
pIC50: −log10 of the molar value. “Also recorded” adds a separate entry of the source.

Key:
[1] = Vacuum drying of Form B; type: physicochemical; settings: vacuum drying at room temperature
Experimental: A 1,4-dioxane solution of Form A was prepared by dissolving 20 mg in 0.2-1.0 mL of 1,4-dioxane until clear solution was obtained. Then, water was added while maintaining magnetic agitation until precipitate appeared. […] XRPD data was obtained on the wet-cake prior to drying.
Form B can only be prepared in a location where Form C has rigorously been excluded, otherwise the conditions to prepare Form B (described above) will instead produce Form C, the most thermodynamically stable form identified.

[2] = system: ISR pathway (H4 ATF4-NLuc cell line); assay: ATF4 Nano Luciferase reporter integrated stress response (ISR) assay; type: cell-based; settings: Homo sapiens; H4 ATF4-NLuc (clone 17) cells, 50 um sodium arsenite 6 hours, luminescence
Description: Cellular stress leads to activation of the integrated stress response pathway through one of four eukaryotic initiation factor 2α kinases and halts global translation, while allowing for the translation of select transcripts like ATF4 (activating transcription factor 4) that are important for the response to cellular stress. During normal conditions, small open reading frames (ORFs) in the 5′ UTR of ATF4 occupy the ribosome and prevent translation of the coding sequence of ATF4. During stress conditions however, the ribosome scans past these upstream ORFs and preferentially begins translation at the coding sequence of ATF4. In this way, the translation, and thus protein level of ATF4 is a readout of ISR pathway activation. Thus, a fusion of the uORFs and the beginning of the coding sequence of ATF to a common cellular reporter like nano-luciferase allows for a sensitive and high-throughput readout of ISR pathway activity.
Compound I, or any of its forms described herein, may be tested in the following assay. […] We utilized this cell line to generate an integrated stress response (ISR) assay to evaluate the activity of ISR pathway inhibitors via luminescence readout. […]

## O=C(COc1ccc(Cl)cc1)NC12CC(c3nnc([C@H]4C[C@@H](OC(F)(F)F)C4)o3)(C1)C2 [Form B, 2-(4-chlorophenoxy)-N-[3-[5-[cis-3-(trifluoromethoxy)cyclobutyl]-1,3,4-oxadiazol-2-yl]-1-bicyclo[1.1.1]pentanyl]acetamide]
[1]
  form after vacuum drying: converted to Form A; also recorded: desolvates to Form A

## O=C(COc1ccc(Cl)cc1)NC12CC(c3nnc([C@H]4C[C@@H](OC(F)(F)F)C4)o3)(C1)C2 [Compound I, 2-(4-chlorophenoxy)-N-[3-[5-[cis-3-(trifluoromethoxy)cyclobutyl]-1,3,4-oxadiazol-2-yl]-1-bicyclo[1.1.1]pentanyl]acetamide]
[2]
  pIC50: > 6.00
